We go through 5 compounds from publication PMC7717579, “Phosphoregulation of HORMA domain protein HIM-3 promotes asymmetric synaptonemal complex disassembly in meiotic prophase in Caenorhabditis elegans” (PLoS Genetics, 2020).

Non-standard residues stand in square brackets, D forms with d. Residues, ends and D or L forms follow the SMILES beside them. *: point of attachment. FITC = O=C1OC2(c3ccc(O)cc3Oc3cc(O)ccc32)c2ccc(NC(=S)*)cc21; pY = N[C@@H](Cc1ccc(OP(=O)(O)O)cc1)C(=O)O; pS = N[C@@H](COP(=O)(O)O)C(=O)O; Ahx = NCCCCCC(=O)O

The assay concerns the target T1, HTP-2 protein (full length) (Caenorhabditis elegans, UniProt Q95XC8).
T1 sequence (Q95XC8 1-352): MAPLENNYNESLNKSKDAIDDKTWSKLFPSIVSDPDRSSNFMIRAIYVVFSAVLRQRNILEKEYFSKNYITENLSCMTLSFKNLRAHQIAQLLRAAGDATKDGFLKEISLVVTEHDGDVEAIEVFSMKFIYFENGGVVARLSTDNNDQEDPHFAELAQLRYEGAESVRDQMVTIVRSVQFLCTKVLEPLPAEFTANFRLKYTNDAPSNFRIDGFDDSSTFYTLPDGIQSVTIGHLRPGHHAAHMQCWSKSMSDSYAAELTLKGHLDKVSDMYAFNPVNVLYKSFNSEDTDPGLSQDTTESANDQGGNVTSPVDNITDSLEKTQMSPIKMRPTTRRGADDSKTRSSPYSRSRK
As to the kind of experiment: Fluorescence polarization (FP) peptide binding assay. The conditions noted are these: for Kd (HTP-2 binding): FP, 50 nM FITC-tagged HIM-3 closure motif peptide, various concentrations of bacterially purified full-length HTP-2, 20 mM Tris pH 7.5, 300 mM NaCl, 10% glycerol, 1 mM DTT, 0.1% NP-40, 1 hour at room temperature, single-site binding model, triplicated measurements. From the text:
To understand regulation of meiotic proteins by post-translational modification, we previously carried out mass spectrometry to identify phosphorylated proteins in C. elegans adult hermaphrodites. […] We detected phosphopeptides containing Ser282 either singly or in combination with Ser274, Ser277, or Tyr279, and the most commonly-observed peptide contained doubly-phosphorylated Ser277/Ser282 (Fig 1A and S1 Table). Among the three most C-terminal phosphoresidues, which reside within the conserved closure motif, Tyr279 and Ser or Thr at position 282 are conserved features among nematode HIM-3 orthologs (Fig 1A). […] More recent studies further identified this C-terminus region containing Ser375 to be the closure motif, able to be bound by the HORMA domain of HORMAD1 itself and HORMAD2 [27, 34]. While phosphorylation at the closure motif is conserved between C. elegans HIM-3 and mouse HORMAD1 (S1 Fig), the function is not understood. Since other HORMA family proteins, HTP-1 and -2, are known to bind the HIM-3 closure motif in C. elegans, we first examined if phosphorylation affects HTP-1/2 binding to HIM-3 in vitro. A previous study has shown that both HTP-1 and -2 proteins bind unmodified HIM-3 peptides containing the closure motif in a fluorescence polarization (FP) peptide binding assay. Examination of the crystal structure resolved by the same study led us to predict that phosphorylation at Ser282 would likely interfere with HTP-1/2 binding (Fig 1B). We conducted a similar FP peptide binding assay using purified HTP-2 and fluorescently tagged HIM-3 closure motif peptides containing various modifications (Fig 1C).
Fig 1 Phosphorylation at the HIM-3 closure motif prevents HTP-1/2 binding in vitro. A, top: Schematic diagram of HIM-3, showing the HORMA domain (magenta) and phosphorylation sites identified by mass spectrometry in red. The conserved closure motif is underlined. bottom: Conservation of the Tyr and Ser/Thr, highlighted in orange, in the closure motif in eight Caenorhabditis species. B, left: Diagram of hierarchical binding of HTP-1, 2, 3 and HIM-3 from. center, diagram of possible multivalent binding modes of the axial element, based on. right, Interactions between the HIM-3 closure motif (magenta) and the HTP-2 (grey) HORMA domain shown in PDB structure 4TZL [27]. C, Fluorescence polarization peptide binding assay using bacterially purified HTP-2 protein (full length) and fluorescently tagged HIM-3 peptides with indicated phosphorylation or Ala substitution. Wild type means HIM-3 peptides with no phosphorylation. Phosphorylation at Ser282 inhibits HTP-2 binding in vitro. Error bars are calculated as the SD from triplicated measurements. […]
Fluorescein (FITC) conjugated peptides for the FP assay were synthesized by either Scrum Inc. or Eurofins Inc. as shown in S2 Table. […] For the fluorescence assay, synthesized peptides were first resuspended in DMSO, then diluted into binding buffer (20 mM Tris pH 7.5, 300 mM NaCl, 10% glycerol, 1 mM DTT, 0.1% NP-40). Reactions of 50 μl total volume containing 50 nM peptide and various concentrations of HTP-2 proteins were incubated for 1 hour at room temperature, then fluorescence polarization was measured in 384-well plates using a TECAN Infinite M1000 PRO fluorescence plate reader. Binding data were analyzed with Graphpad Prism version 6.0h for Macintosh (GraphPad Software, La Jolla California USA) using a single-site binding model.
(Polarisation of emitted light reports the rotation of a fluorescent probe.)

One may read the Kd as the equilibrium constant for the complex coming apart. Consider `CC[C@H](C)[C@H](NC(=O)CNC(=O)[C@H](CCC(N)=O)NC(=O)[C@H](CO)NC(=O)[C@H](CC(C)C)NC(=O)CNC(=O)[C@H](Cc1ccc(O)cc1)NC(=O)[C@@H]1CCCN1C(=O)[C@H](CO)NC(=O)[C@H](CC(=O)O)NC(=O)[C@H](CCCNC(=N)N)NC(=O)[C@H](CO)NC(=O)[C@@H](NC(=O)[C@H](CCCNC(=N)N)NC(=O)CCCCCNC(=S)Nc1ccc2c(c1)C(=O)OC21c2ccc(O)cc2Oc2cc(O)ccc21)[C@@H](C)CC)C(=O)N[C@H](C(=O)N[C@@H](CCCCN)C(=O)O)[C@@H](C)O` [unphosphorylated peptides] ({FITC-Ahx}-RISRDSPYGLSQGITK-OH), for which the Kd turned out to be 5.8 µM.

For `CC[C@H](C)[C@H](NC(=O)CNC(=O)[C@H](CCC(N)=O)NC(=O)[C@H](C)NC(=O)[C@H](CC(C)C)NC(=O)CNC(=O)[C@H](Cc1ccc(O)cc1)NC(=O)[C@@H]1CCCN1C(=O)[C@H](CO)NC(=O)[C@H](CC(=O)O)NC(=O)[C@H](CCCNC(=N)N)NC(=O)[C@H](CO)NC(=O)[C@@H](NC(=O)[C@H](CCCNC(=N)N)NC(=O)CCCCCNC(=S)Nc1ccc2c(c1)C(=O)OC21c2ccc(O)cc2Oc2cc(O)ccc21)[C@@H](C)CC)C(=O)N[C@H](C(=O)N[C@@H](CCCCN)C(=O)O)[C@@H](C)O` [S282A] ({FITC-Ahx}-RISRDSPYGLAQGITK-OH), the Kd was 11.3 µM.

On to `CC[C@H](C)[C@H](NC(=O)CNC(=O)[C@H](CCC(N)=O)NC(=O)[C@H](CO)NC(=O)[C@H](CC(C)C)NC(=O)CNC(=O)[C@H](Cc1ccc(OP(=O)(O)O)cc1)NC(=O)[C@@H]1CCCN1C(=O)[C@H](CO)NC(=O)[C@H](CC(=O)O)NC(=O)[C@H](CCCNC(=N)N)NC(=O)[C@H](CO)NC(=O)[C@@H](NC(=O)[C@H](CCCNC(=N)N)NC(=O)CCCCCNC(=S)Nc1ccc2c(c1)C(=O)OC21c2ccc(O)cc2Oc2cc(O)ccc21)[C@@H](C)CC)C(=O)N[C@H](C(=O)N[C@@H](CCCCN)C(=O)O)[C@@H](C)O` [Y279phos] ({FITC-Ahx}-RISRDSP[pY]GLSQGITK-OH), for which the Kd amounted to 16.1 µM.

For the compound “{FITC}-[Ahx]RISRDSPYGL[pS]QGITK-OH [S282phos, FITC-tagged HIM-3 closure motif peptide phosphorylated at Ser282]”, the “Kd (HTP-2 binding)” value was “not significant binding”.

With “{FITC}-[Ahx]RISRDSP[pY]GL[pS]QGITK-OH [Y279phos_S282phos, FITC-tagged HIM-3 closure motif peptide phosphorylated at Tyr279 and Ser282]”, the “Kd (HTP-2 binding)” value is recorded as “not significant binding”.
